Patent US5980899A, “Identification of peptides that stimulate hepatitis C virus specific cytotoxic T cells” (The United States of America as represented by the …, priority 1992, dated 1999)

Columns and labels:
[1] = tested on: HCV; settings: chronic HCV liver disease; cited from earlier work
[2] = tested on: 18Neo (BALB/c 3T3 fibroblast, H-2^d) target cells
[3] = tested on: T cells; assay: Response to P17 stimulation in a chronically infected chimpanzee; assay type: cell-based; settings: one chronically infected chimpanzee

| Molecule | patients who respond [1] | responders who relapse after treatment is stopped [1] | toxicity that might affect activity in CTL stimulation or utility in vivo [2] | cytotoxicity in response to stimulation [3] |
| --- | --- | --- | --- | --- |
| α-interferon | less than half | approximately 50% | – | – |
| CSCC[C@H](N)C(=O)N[C@@H](CO)C(=O)N[C@@H](Cc1ccc(O)cc1)C(=O)N[C@@H](CO)C(=O)N[C@@H](Cc1c[nH]c2ccccc12)C(=O)N[C@H](C(=O)NCC(=O)N[C@@H](C)C(=O)N[C@@H](CC(C)C)C(=O)N[C@H](C(=O)N[C@H](C(=O)N1CCC[C@H]1C(=O)N[C@@H](CS)C(=O)N[C@@H](C)C(=O)N[C@@H](C)C(=O)N[C@@H](CCC(=O)O)C(=O)O)[C@@H](C)O)C(C)C)[C@@H](C)O [P17, MSYSWTGALVTPCAAE] | – | – | did not show any toxicity | not cytotoxicity |
